Data as given in the supplement of paper PMC11208160.

Test: recombinant UMI read abundance after kanamycin selection (control-corrected) (log10(CPM+1)); higher = more efficient recombination; extreme values may be limits of the assay; sequences stand for … in AGTGCAGAGAAAATCGGCCAGTTTTCTCTGCCTGCAGTCCGCATGCCGTGGGACCCCTTGGGTTCTAACCTGTTGCCTAGATTTATGCAGCGGACTGCCTTTCTCCCAAAGTGATAAACCGG…AGGTTGGTTTCACT; site = the 11-nt donor
How it was run: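 Sequenced counts of recombinant UMIs were turned into CPM, averaged across replicates and scaled with control-derived factors. The reported figure is log10(CPM+1). Those UMIs, each 12 nt long, tagged donor and donor-binding-loop pairs on a plasmid with a promoterless kanamycin gene, screened as a pool in Escherichia coli with IPTG (0.07 mM) plus kanamycin or without selection.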
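Also: IS621 bridge recombinase in Escherichia coli cells against a fixed T5 target plasmid.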

Sequence | recombinant UMI read abundance (log10)
CTAGTATCATGGACCGGTTTTCCCGGTAATCCGTATTTGAC (site CTAGTATCTCA) | 0.333
CTAGTATCATGGACCGGTTTTCCCGGTAATCCGTATTTGAC (site CTAGTATCTCT) | 1.67
CTAGTATCATGGACCGGTTTTCCCGGTAATCCGTATTTGAC (site CTAGTATCTGA) | 1.14
CTAGTATCATGGACCGGTTTTCCCGGTAATCCGTATTTGAC (site CTAGTATCTGC) | 2.62
CTAGTATCATGGACCGGTTTTCCCGGTAATCCGTATTTGAC (site CTAGTATCTGG) | 1.48
CTAGTATCATGGACCGGTTTTCCCGGTAATCCGTATTTGAC (site CTAGTATCTGT) | 2.66
CTAGTATCATGGACCGGTTTTCCCGGTAATCCGTATTTGAC (site CTAGTATCTTG) | 0.0198
CTAGTATCATGGACCGGTTTTCCCGGTAATCCGTATTTGAC (site CTAGTATCTTT) | 2.1
CTAGTATCATGGACCGGTTTTCCCGGTAATCCGTATTTGAC (site CTAGTCACTGT) | 0
CTAGTATCATGGACCGGTTTTCCCGGTAATCCGTATTTGAC (site CTAGTCTCTCT) | 0.0131
CTAGTATCATGGACCGGTTTTCCCGGTAATCCGTATTTGAC (site CTAGTCTCTGA) | 0
CTAGTATCATGGACCGGTTTTCCCGGTAATCCGTATTTGAC (site CTAGTCTCTGT) | 1.18
CTAGTATCATGGACCGGTTTTCCCGGTAATCCGTATTTGAC (site CTAGTGCCTGT) | 0
CTAGTATCATGGACCGGTTTTCCCGGTAATCCGTATTTGAC (site CTAGTGTCTAT) | 0.00843
CTAGTATCATGGACCGGTTTTCCCGGTAATCCGTATTTGAC (site CTAGTGTCTGC) | 0
CTAGTATCATGGACCGGTTTTCCCGGTAATCCGTATTTGAC (site CTAGTGTCTGT) | 2.01
CTAGTATCATGGACCGGTTTTCCCGGTAATCCGTATTTGAC (site CTAGTTGCTGT) | 0
CTAGTATCATGGACCGGTTTTCCCGGTAATCCGTATTTGAC (site CTAGTTTCTGG) | 0
CTAGTATCATGGACCGGTTTTCCCGGTAATCCGTATTTGAC (site CTAGTTTCTGT) | 0

Sequence | recombinant UMI read abundance (log10)
CTAGTATCATGGACCGGTTTTCCCGGTAATCCGTATTTGAC (site CTAGTTTCTTT) | 0
CTAGTATCATGGACCGGTTTTCCCGGTAATCCGTATTTGAC (site CTATGATCTGT) | 0
CTAGTATCATGGACCGGTTTTCCCGGTAATCCGTATTTGAC (site CTATTACCTGT) | 0
CTAGTATCATGGACCGGTTTTCCCGGTAATCCGTATTTGAC (site CTATTATCTAT) | 0
CTAGTATCATGGACCGGTTTTCCCGGTAATCCGTATTTGAC (site CTATTATCTGC) | 0
CTAGTATCATGGACCGGTTTTCCCGGTAATCCGTATTTGAC (site CTATTATCTGT) | 0.701
CTAGTATCATGGACCGGTTTTCCCGGTAATCCGTATTTGAC (site CTATTGTCTGT) | 0
CTAGTATCATGGACCGGTTTTCCCGGTAATCCGTATTTGAC (site CTCATATCTGT) | 0.632
CTAGTATCATGGACCGGTTTTCCCGGTAATCCGTATTTGAC (site CTCGAATCTGT) | 0
CTAGTATCATGGACCGGTTTTCCCGGTAATCCGTATTTGAC (site CTCGTAACTGT) | 0
CTAGTATCATGGACCGGTTTTCCCGGTAATCCGTATTTGAC (site CTCGTATCTCT) | 0.007
CTAGTATCATGGACCGGTTTTCCCGGTAATCCGTATTTGAC (site CTCGTATCTGA) | 0
CTAGTATCATGGACCGGTTTTCCCGGTAATCCGTATTTGAC (site CTCGTATCTGT) | 0.0723
CTAGTATCATGGACCGGTTTTCCCGGTAATCCGTATTTGAC (site CTCGTCTCTGT) | 0
CTAGTATCATGGACCGGTTTTCCCGGTAATCCGTATTTGAC (site CTGCTATCTGT) | 0
CTAGTATCATGGACCGGTTTTCCCGGTAATCCGTATTTGAC (site CTGGCATCTGT) | 0
CTAGTATCATGGACCGGTTTTCCCGGTAATCCGTATTTGAC (site CTGGTAGCTGT) | 0
CTAGTATCATGGACCGGTTTTCCCGGTAATCCGTATTTGAC (site CTGGTATCTGG) | 0
CTAGTATCATGGACCGGTTTTCCCGGTAATCCGTATTTGAC (site CTGGTATCTGT) | 0
